Experimental data from patent US10906929B2, “Phosphoramidate nucleoside derivatives as anticancer agents” (NuCana plc, priority 2016, dated 2021).

Assays:
Format in all cases: cell-based
KG1a cell line = assay: Annexin V/propidium iodide apoptosis assay; settings: 72 h, dose required to kill 50% of the cells
Method: Cells of the KG1a cell line were maintained in RPMI medium (Invitrogen, Paisley, UK) supplemented with 100 units/ml penicillin, 100 μg/ml streptomycin and 20% foetal calf serum. Cells were subsequently aliquoted (10^5 cells/100 μl) into 96-well plates and were incubated at 37° C. in a humidified 5% carbon dioxide atmosphere for 72 h in the presence of nucleoside analogues and their respective phosphoramidates at concentrations that were experimentally determined for each series of compounds. In addition, control cultures were carried out to which no drug was added. Cells were subsequently harvested by centrifugation and were analyzed by flow cytometry using the Annexin V assay.
Measurement of in vitro apoptosis. Cultured cells were harvested by centrifugation and then resuspended in 195 μl of calcium-rich buffer. Subsequently, 5 μl of Annexin V (Caltag Medsystems, Botolph Claydon, UK) was added to the cell suspension and cells were incubated in the dark for 10 mins prior to washing. Cells were finally resuspended in 190 μl of calcium-rich buffer together with 10 μl of propidium iodide. Apoptosis was assessed by dual-colour immunofluorescent flow cytometry as described previously. Subsequently LD50 values (the dose required to kill 50% of the cells in a culture) were calculated for each nucleoside analogue and phosphoramidate.
The data obtained in these experiments were evaluated using one way ANOVA. All data was confirmed as Gaussian or a Gaussian approximation using the omnibus K2 test. LD50 values were calculated from the non-linear regression and line of best-fit analysis of the sigmoidal dose-response curves. All statistical analyses were performed using Graphpad Prism 6.0 software (Graphpad Software Inc., San Diego, Calif.).

NB4R2 = assay: In vitro cytotoxicity, MTS assay; settings: 72 h, read-out: Inhibitory concentration (IC50) NB4R2
Method: (§1) Cladribine phosphoramidate derivatives were evaluated against six leukaemic cell lines (KG1, U937, K562, NB4R2, NB4 and HL-60) in vitro. Inhibitory concentration (IC50) at which 50% of the cells were no longer viable (calculated using MTS assay) was determined. Cells were treated with Cladribine and its 3′-phosphoramidate derivatives at concentrations between 100 μM and 0.02 μM by serial dilutions and incubated for 72 h at 37° C., 5% CO2 in a final volume of 90 μL. Twenty microliters of MTS reagent (Promega UK Ltd, Southampton, Hants) was added to the tumour cell cultures and reaction incubated for a further 4 h at 37° C., 5% CO2. The absorbance of the reaction after this time was read by spectrophotometry at 490 nm and the percentage of viable cells calculated relative to untreated control cells in the same assay.

KG1 = assay: In vitro cytotoxicity, MTS assay; settings: Homo sapiens, KG-1, 72 h, read-out: Inhibitory concentration (IC50) KG1
Method: as §1

U937 = assay: In vitro cytotoxicity, MTS assay; settings: Homo sapiens, U-937, 72 h, read-out: Inhibitory concentration (IC50) U937
Method: as §1

K562 = assay: In vitro cytotoxicity, MTS assay; settings: Homo sapiens, 72 h, read-out: Inhibitory concentration (IC50) K562
Method: as §1

HL-60 = assay: In vitro cytotoxicity, MTS assay; settings: Homo sapiens, 72 h, read-out: Inhibitory concentration (IC50) HL-60
Method: as §1

NB4 = assay: In vitro cytotoxicity, MTS assay; settings: Homo sapiens, NB-4, 72 h, read-out: Inhibitory concentration (IC50) NB4
Method: as §1

L1210 = assay: Cytostatic activity, cell counting (Coulter counter); settings: Mus musculus, L1210; uninfected, 48 h proliferation; read-out: IC50 L1210
Text: (§2) Tumor cell cultures were infected with M. hyorhinis (ATCC 17981) and after two or more passages (to avoid bias by the initial inoculum) successful infection was confirmed using the MycoAlert™ mycoplasma detection kit (Lonza, Basel, Switzerland). Although this assay is only semi-quantitative, a maximal infection was observed 3 to 4 days after subcultivation of the mycoplasma-exposed cells. Chronically infected tumor cell lines are further referred to as Cell line.Hyor. All tumor cell cultures were maintained in Dulbecco's modified Eagle's medium (DMEM) (Invitrogen) supplemented with 10% fetal bovine serum (Biochrom AG, Berlin, Germany), 10 mm HEPES, and 1 mm sodium pyruvate (Invitrogen). Cells were grown at 37° C. in a humidified incubator with a gas phase containing 5% CO2.
(§3) The cytostatic activity of the test compounds was examined in mycoplasma-infected and uninfected cancer cell lines. When assaying the effect of M. hyorhinis infection, monolayer MCF7 and MCF7.Hyor cells were seeded in 48-well microtiter plates (Nunc™, Roskilde, Denmark) at 10,000 cells/well (Corning Inc., Corning, N.Y.) […]. After 24 h, the cells were exposed to different concentrations of test compound and allowed to proliferate for 72 h (to ensure sufficient cell proliferation and mycoplasma growth) after which the cells were trypsinized and counted using a Coulter counter (Analis, Suarlée, Belgium). Suspension cells (L1210, L1210.Hyor, FM3A, and FM3A.Hyor) were seeded in 96-well microtiter plates (Nunc) at 60,000 cells/well in the presence of different concentrations of test compound. The cells were allowed to proliferate for 48 h and then counted using a Coulter counter. The 50% inhibitory concentration (IC50) was defined as the compound concentration required to reduce cell proliferation by 50%.

MCF7 = assay: as above; settings: Homo sapiens, MCF7; uninfected, 72 h proliferation; read-out: IC50 MCF7
Text: as §2, §3

Compound `Nc1nc(Cl)nc2c1ncn2[C@H]1C[C@H](O)[C@@H](CO)O1` [Cladribine, cladribine, reference compound] has an LD50 (KG1a cell line) of 0.18 μm, an IC50 (NB4R2) of 60 nM and an IC50 (KG1) of 60 nM. The IC50 (U937) was 20 nM, the IC50 (K562) was 530 nM and the IC50 (HL-60) was 90 nM. The IC50 (NB4) was 40 nM, the IC50 (L1210) was 400 nM and the IC50 (MCF7) was 370 nM.
